Where two headings read alike, the source gives them in different places.
Legend:
potato stem segments [1] = assay: Carbohydrate sources, potato stem segments, 9 weeks; format: cell-based; conditions: 10 g/l, 9 weeks; for activity at 10000 µg/mL: Solanum tuberosum
Text: Similar results are observed with potato stem segments after 9 weeks of culturing.

[2] = test system: non-transformed potato stem segments; assay: Inhibition by mannose of regeneration of shoots; format: cell-based, Solanum tuberosum; conditions: mannose 0 g/l
Method: This substrate is referred to hereafter as "selection/regeneration substrate". Regenerated plants are produced as described above, except that the shoot segments are not co-cultured with bacteria and the washing procedure consequential thereon is omitted. […] In general, mannose cannot be used as a carbohydrate source in most plant species. When mannose is added to plants it is metabolized and mannose 6-phosphate accumulates. Mannose 6-phosphate can be converted to fructose 6-phosphate by mannose 6-phosphate isomerase, the amount converted being dependent upon the activity of the isomerase. Such fructose 6-phosphate may be utilized by plants, but in principal high levels of mannose (whether or not an alternative carbohydrate source is available) are toxic to plants.

potato stem segments [3] = assay: D-xylose as carbohydrate source during shoot regeneration; format: cell-based; conditions: xylose 0 g/l; sucrose 10 g/l
Method: Explants are produced and treated as described above under "selection of transformed tissue", except that the selection/regeneration substrate was not supplemented with kanamycin or cabenicillin, and that plant tissue is not transformed. Thus the only subcultivation step is when the explants are transferred from the co-cultivation substrate to the selection/regeneration substrate which is supplemented with xylose at the concentrations indicated below. The number of regenerated shoots is recorded after 12 weeks.

[4] = test system: sugarbeet cotyledon explants; assay: Effect of D-xylose in sugarbeets with and without light; format: cell-based; conditions: D-xylose 0 g/l, sucrose 10 g/l
Method: Sugarbeet is transformed by the so-called cot-pet method as described in PCT Patent Application No. PCT DK92/00108 wherein cotyledons including the petiole are used as explants. Seedlings are derived from seeds germinated and grown for 4-7 weeks at 12° C. in a 16 h day/8 h night regime. Cotyledons are excised 2-3 mm below the node, tawn apart and cultured either in the dark or in light and in the presence or absence of xylose.

explants = assay: Inhibition of the toxicity of mannose by methyl-3-O-glucose; format: cell-based; conditions: MOG 0 g/l; mannose 0 g/l; sucrose 10 g/l
Text: Example 25 is repeated except that the selection/regeneration substrate is supplemented with methyl 3-0-glucose (MOG) at the concentrations indicated in Table 25. The percentage of live explants is registered after 8 weeks.

[5] = test system: explants transgenic for the mannose 6-phosphate isomerase gene; assay: Shoot regeneration on mannose, sucrose and methyl-3-O-glucose, Man-6-P-isomerase; format: cell-based; conditions: sucrose 10 g/l, no mannose, no methyl 3O-glucose; Transgenic tissue
Wild type explants = assay: Shoot regeneration on mannose, sucrose and methyl-3-O-glucose, wild type; format: cell-based; conditions: sucrose 10 g/l, no mannose, no methyl 3O-glucose; Wild type tissue
[6] = test system: leaf discs of tobacco without (GUS-) introduced β-glucuronidase genes; format: cell-based, Nicotiana tabacum 'Wisconsin 38'; conditions: test compounds at several concentrations up to 250 μM in MSO
[7] = test system: leaf discs of tobacco with (GUS+) introduced β-glucuronidase genes; format: cell-based, Nicotiana tabacum 'Wisconsin 38'; conditions: test compounds at several concentrations up to 250 μM in MSO
[8] = target: β-glucuronidase from E. coli (Escherichia coli, UniProt P05804); assay: Hydrolysis by β-glucuronidase (GUS), HPLC/TLC; format: biochemical; conditions: 50 mM sodium phosphate buffer pH 7.0, 37° C.; HPLC/TLC
Sequence of β-glucuronidase from E. coli (P05804 whole entry, looked up): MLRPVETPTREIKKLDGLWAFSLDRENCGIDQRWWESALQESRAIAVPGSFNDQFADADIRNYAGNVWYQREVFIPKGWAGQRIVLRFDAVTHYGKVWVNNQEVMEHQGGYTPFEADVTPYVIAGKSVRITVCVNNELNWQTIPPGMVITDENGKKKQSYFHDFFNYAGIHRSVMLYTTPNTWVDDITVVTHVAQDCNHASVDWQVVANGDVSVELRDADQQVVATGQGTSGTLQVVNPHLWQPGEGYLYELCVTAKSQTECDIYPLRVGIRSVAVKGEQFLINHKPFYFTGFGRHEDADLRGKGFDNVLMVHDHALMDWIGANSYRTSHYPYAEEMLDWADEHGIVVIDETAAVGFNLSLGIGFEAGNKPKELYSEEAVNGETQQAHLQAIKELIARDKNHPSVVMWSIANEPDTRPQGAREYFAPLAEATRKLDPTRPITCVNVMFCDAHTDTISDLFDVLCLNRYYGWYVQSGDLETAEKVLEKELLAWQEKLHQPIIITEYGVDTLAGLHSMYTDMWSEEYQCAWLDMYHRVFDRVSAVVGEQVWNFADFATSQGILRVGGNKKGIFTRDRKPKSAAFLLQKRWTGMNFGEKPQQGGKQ
Method: […] […] This confirms the identity of the product as a conjugate of BA and β-D-glucuronic acid.
[…] The presence of hydrolysis products is then determined using HPLC and TLC.

[9] = 2 weeks in dark and 1 week in light

| SMILES | # of Shoots per explant (potato stem segments [1]) | activity at 10000 µg/mL (potato stem segments [1]; read-out: Size % of control) [%] | activity at 10000 µg/mL (potato stem segments [1]; read-out: explants alive % of control) [%] | Regenerated shoots/explant (%) ([2]; sucrose 10 g/l) | Regenerated shoots/explant (%) ([2]; sucrose 20 g/l) | Number of regenerated shoots each stem segment (potato stem segments [3]) | % expl. with shoots [4, 9] [%] | Green (%) [4, 9] [%] | weight (wet) [4, 9] [g] | % expl. with shoots ([4]; 3 weeks light) [%] | Green (%) ([4]; 3 weeks light) | weight (wet) ([4]; 3 weeks light) [g] | percentage of live explants (explants) | Regeneration of shoots [5] [shoots/explant] | Regeneration of shoots (Wild type explants) [shoots/explant] | Shoot formation, GUS- [6] | Shoot formation, GUS+ [7] | Hydrolysis by β-glucuronidase (GUS), result in words [8] |
| --- | --- | --- | --- | --- | --- | --- | --- | --- | --- | --- | --- | --- | --- | --- | --- | --- | --- | --- |
| OC[C@H]1O[C@@](CO)(O[C@H]2O[C@H](CO)[C@@H](O)[C@H](O)[C@H]2O)[C@@H](O)[C@@H]1O [sucrose] | 2.8 | 100 | 100 | 50 | 53 | 6 | 50 | 97 | 1.38 | 98 | 100 | 7.41 | 100 | 1.4 | 1.7 | – | – | – |
| CC(C)=CCNc1ncn([C@@H]2O[C@H](C(=O)[O-])[C@@H](O)[C@H](O)[C@H]2O)c2ncnc1-2.[Na+] [IP3GN sodium salt, 3-β-D-glucopyranuronosyl-6-(3-methyl-but-2-enylamino)purine, sodium salt] | – | – | – | – | – | – | – | – | – | – | – | – | – | – | – | + ("+" means shoot formation at concentrations below 250 μM) | + ("+" means shoot formation at concentrations below 250 μM) | removal of the UV spot corresponding to IP3GN |

— patent publication US5994629A, “Positive selection” (priority 1991, dated 1999)
